Results reported in patent publication US20200190101A1, “Composition Containing Novel Glutamic Acid Derivative And Block Copolymer, And Use Thereof” (Nippon Kayaku Kabushiki Kaisha, priority 2015, published 2020).
Counter-ions that a name gives are not always drawn.

How the values were obtained:
[1] = system: OS-RC-2 cells having high GGT activity; format: cell-based, human; conditions: GGsTop 10 μM, compound 0.0001 to 1 μM
Experimental: OS-RC-2 cells were inoculated by a method similar to that of Test Example 3. […] After the cells were incubated for 6 hours, the interior of the wells was washed, and after the cells were further incubated for 3 days, the cell proliferation suppressive activity was evaluated by a method similar to that of Test Example 3.
By a similar operation, the cell proliferation suppressive activity was evaluated using doxorubicin that was not glutamic acid-derivatized, from the light absorbance of the compound.
The GGT activity dependency of the cell proliferation inhibitory activity of the EHC-bonded glutamic acid derivative according to Synthesis Example 6 was evaluated using OS-RC-2 cells having high GGT activity.
OS-RC-2 cells were inoculated by a method similar to that of Test Example 10. After the cells were incubated for one day, GGsTop (Wako Pure Chemical Industries, Ltd.), which is a GGT inhibitor, was added to the cells at a final concentration of 10 μM, and the cells were incubated for one hour. Subsequently, the EHC-bonded glutamic acid derivative according to Synthesis Example 6 was added to the cells at a final concentration of 0.0001 to 1 μM. After the cells were incubated for 6 hours, the interior of the wells was washed, and after the cells were incubated for 3 days, the cell proliferation suppressive activity was evaluated by a method similar to that of Test Example 10.
By a similar operation, the cell proliferation suppressive activity was evaluated using EHC, which is the active ingredient of Synthesis Example 6, from the light absorbance of the compound.

[2] = Phosphate buffered physiological saline (PBS) solution stability test; format: physicochemical; conditions: PBS (DMSO stock), 37° C., after 24 hours
Experimental: 0.148 mL of the doxorubicin-bonded glutamic acid derivative PBS solution was dissolved in 0.148 mL of a PBS solution, and the solution was allowed to react at 37° C.
PBS (0.100 mL) was added to the EHC-bonded glutamic acid derivative solution (0.100 mL), and the mixture was allowed to react at 37° C. The reaction liquid was analyzed by HPLC, and thereby the residual ratio of the EHC-bonded glutamic acid derivative was determined.
PBS (0.117 mL) was added to the camptothecin-bonded glutamic acid derivative solution (0.117 mL), and the mixture was allowed to react at 37° C. The reaction liquid was analyzed by HPLC, and thereby the residual ratio of the glutamic acid derivative was determined.
The reaction liquid was analyzed by HPLC, and thereby the residual ratio of the EHC-bonded glutamic acid derivative was determined.

[3] = system: OS-RC-2 cells having high GGT activity; assay: cells; format: cell-based, human; conditions: Homo sapiens, OS-RC-2, read-out: Cell proliferation inhibitory activity
Experimental: (§1) After the cells were incubated for 6 hours, the interior of the wells was washed, and after the cells were further incubated for 3 days, the cells were immobilized with methanol and stained using Methylene Blue dye. After staining, the dye was extracted with a 0.3% aqueous solution of hydrochloric acid was extracted, and the light absorbance at 660 nm was measured. For the light absorbance thus obtained, the cell proliferation suppressive activity was evaluated based on the reduction ratio for the light absorbance measured from cells to which the compound was not added.
(§2) By a similar operation, the cell proliferation suppressive activity was evaluated from the light absorbance, using doxorubicin that was not converted to a glutamic acid derivative. The results are shown in FIG. 1 (OS-RC-2 cells having high GGT activity) and FIG. 2 (SK-OV-3 cells having low GGT activity).
(§3) The cell proliferation inhibitory activity of the EHC-bonded glutamic acid derivative according to Synthesis Example 6 was evaluated using OS-RC-2 cells (RIKEN BioResource Center), which are known to have high GGT activity, and SK-OV-3 cells (American Type Culture Collection), which are known to have low GGT activity.
(§4) On a 96-well plate, OS-RC-2 cells having high GGT activity and SK-OV-3 cells having low GGT activity were each inoculated in an amount of 4,000 cells/well and were incubated for one day at 37° C. and 5% CO2, and then the EHC prodrug according to Synthesis Example 6 was added to the cells at a final concentration of 0.0001 to 1 μM. After the cells were incubated for 6 hours, the interior of the wells was washed, and the cells were further incubated for 3 days. After the incubation, the cells were immobilized with methanol and were stained using Methylene Blue dye. After staining, the dye was extracted with a 0.3% aqueous solution of hydrochloric acid, and the light absorbance at 660 nm was measured. The cell proliferation suppressive activity was evaluated based on the reduction ratio for the light absorbance thus obtained, with respect to the light absorbance measured from cells to which the compound was not added.
(§5) By a similar operation, EHC, which was an active ingredient of Synthesis Example 6, was used without modification, and the cell proliferation suppressive activity was evaluated from the light absorbance.

[4] = system: γ-glutamyl transpeptidase (GGT); assay: γ-Glutamyl transpeptidase (GGT) enzyme recognition test; format: biochemical; conditions: 0.34 mg/mL DMSO solution diluted with PBS + 0.227 mg/mL GGT solution, 37° C.
Experimental: To 0.150 mL of this doxorubicin-bonded glutamic acid derivative (prodrug) PBS solution, 0.150 mL of a 2 U/mL GGT solution obtained by dissolving GGT (0.22 mg, 8 U/mg) (Sigma-Aldrich Company) in PBS (0.880 mL) was added, and the mixture was allowed to react at 37° C.
The reaction liquid was analyzed by HPLC, and thus the residual ratio of the doxorubicin-bonded glutamic acid derivative (prodrug) and the production ratio of doxorubicin were determined.
To 0.100 mL of the doxorubicin-bonded glutamic acid derivative PBS solution, 0.100 mL of a 2 U/mL GGT solution obtained by dissolving GGT (0.38 mg, 8 U/mg) (Sigma-Aldrich Company) in PBS (1.520 mL) was added, and the mixture was allowed to react at 37° C. […]

[5] = Test on pharmacokinetics of Synthesis Example 6 (tissue AUC, OS-RC-2 tumor-bearing mice); parameters: species or system SCID mice; conditions: mouse, in vivo
Experimental: Human renal cell cancer OS-RC-2 tumors that had been subcutaneously subcultured in SCID mice were produced into blocks that measured about 2 mm on each side, and the blocks were subcutaneously transplanted into SCID mice using a trocar.
At time points of 5 minutes, 1 hour, 3 hours, and 6 hours after the administration, various tissues such as blood plasma, liver, bone marrow, and tumor were collected under ether anesthesia. The drug concentrations of EHC as an active drug of Synthesis Example 6, the unchanged drug of Synthesis Example 6, and the unchanged drug of CPT-11 in the various tissues were quantitatively analyzed by a LC-MS/MS method under the following measuring instrument and conditions.
From the concentrations of EHC, the EHC-bonded glutamic acid derivative according to Synthesis Example 6, and CPT-11 in the tissues at various time points, the AUC0-6 hr (μg·hr/mL or g) values of the various components up to 6 hours after the initiation of administration were calculated. As the prodrug activation rates of Synthesis Example 6 and CPT-11 in the various tissues, the AUC0-6 hr ratios of the active drug with respect to the unchanged drug (AUCEHC/AUCSynthesis Example 6 unchanged drug, and AUCEHC/AUCCPT-11) were determined.

[6] = system: human renal cell cancer OS-RC-2; assay: Test on antitumor effect of Synthesis Example 6, OS-RC-2; format: in vivo, SCID mice; conditions: three times at an interval of 4 days
Experimental: By an operation similar to that of Test Example 15, to those mice having human renal cell cancer OS-RC-2 transplanted thereinto, the EHC-bonded glutamic acid derivative of Synthesis Example 6 was intravenously administered through the caudal vein, on the 17th day after tumor transplantation, at a dose of 20, 40, or 80 mg/kg three times in total at an interval of 4 days.
(§6) After the administration, the major axis (L) and the minor axis (W) of a tumor were measured using calipers at an interval of 2 to 3 days, the tumor volume was calculated by the formula: (L×W^2)/2, and the tumor volume change rate from the administration initiation day was determined.

[7] = format: in vitro ADME; conditions: 24 h, 0.0856 mg/mL
Experimental: Mouse blood plasma (0.180 mL) was added to a 0.856 mg/mL DMSO solution of the EHC-bonded glutamic acid derivative of Synthesis Example 6 (0.020 mL), and the mixture was allowed to react at 37° C.
The reaction liquid was analyzed by HPLC, and thereby the residual ratio of the EHC-bonded glutamic acid derivative was determined. 94% of the EHC-bonded glutamic acid derivative prodrug remained after 24 hours.

[8] = system: SK-OV-3 cells having low GGT activity; assay: cells; format: cell-based; conditions: Homo sapiens, SK-OV-3, read-out: Cell proliferation inhibitory activity
Experimental: as §1, §2, §3, §4, §5

[9] = system: Human renal cell cancer OS-RC-2; assay: Test on antitumor effect of Example 6, OS-RC-2; format: in vivo, nude mice; conditions: 20 mg/kg in terms of epirubicin, i.v. once
Experimental: Human renal cell cancer OS-RC-2 was transplanted into nude mice similarly to Test Example 15, and after tumor engraftment was confirmed, the composition of Example 6 according to the present invention was dissolved in 5% glucose. The solution was intravenously administered through the caudal vein once at a dose of 10 or 20 mg/kg in terms of epirubicin. Furthermore, as a control drug, epirubicin hydrochloride was dissolved in a physiological solution, and the solution was intravenously administered through the caudal vein once at a dose of 10 or 20 mg/kg in terms of epirubicin.
as §6

CCc1c2c(nc3ccc(OCc4ccc(NC(=O)CC[C@H](N)C(=O)O)cc4)cc13)-c1cc3c(c(=O)n1C2)COC(=O)[C@]3(O)CC [Synthesis Example 6, 10-(4-((S)-4-amino-4-carboxybutanamido)benzyloxy)-7-ethylcamptothecin ditrifluoroacetate]
Effect of GGT inhibitor on cell proliferation suppressive activity [1]: inhibited the activity
Residual ratio of the glutamic acid derivative in PBS [2]: 90%
inhibition at 0.01 µM [3]: 25%
Disappearance of the glutamic acid derivative and production of EHC by GGT [4]: rapidly disappeared in one hour of the reaction and produced EHC
Activation rate AUCEHC/AUC unchanged drug [5]: 0.03-0.16 times
Antitumor effect (relative tumor volume) ([6]; 80 mg/kg-administered group, i.v.): noticeable tumor regression effect
Antitumor effect (relative tumor volume) ([6]; 20, 40, or 80 mg/kg i.v.): dose-dependent antitumor effect
Residual ratio of the glutamic acid derivative in mouse blood plasma [7]: 94%
inhibition at 0.01 µM [8]: 1.3%

COc1cccc2c1C(=O)c1c(O)c3c(c(O)c1C2=O)C[C@@](O)(C(=O)CO)C[C@@H]3O[C@H]1C[C@H](N)[C@@H](O)[C@H](C)O1 [epirubicin hydrochloride]
Toxicity (death of mice) [9]: the mice died 8 days after the administration due to toxicity
